Data as given in patent US4110165A, “Process for the production of clavulanic acid” (Beecham Group Limited, priority 1974, dated 1978).
Values after ≈ are worked out from the molar mass of the structure shown. Where a name gives a salt, the structure may show the parent alone. Each block holds one molecule with its values, some of them ahead of it.

Columns and labels:
Klebsiella aerogenes A [1] = experiment: Antibacterial synergism MIC, microtiter method (Example 42); format: cell-based; conditions: unit not given; method of Example 42
[2] = system: Klebsiella aerogenes E 70; experiment: as above; format: cell-based; conditions: unit not given; method of Example 42
Klebsiella aerogenes 62 = experiment: as above; format: cell-based; conditions: unit not given; method of Example 42
[3] = system: Staphylococcus aureus (Russell); experiment: M.I.C. synergism with clavulanic acid methyl ester (Example 32); format: cell-based
Proteus mirabilis C889 = experiment: as above; format: cell-based
Klebsiella aerogenes A [4] = experiment: Growth inhibition, penicillins with and without synergist; format: cell-based
Staphylococcus aureus = experiment: Antibacterial synergism MIC, microtiter method (Example 42); format: cell-based; conditions: method of Example 42
Bacillus subtilis A = experiment: MIC, method of Example 30 with 1/100 dilution of overnight broth (Example 46)
Staph. aureus Oxford = experiment: as above; conditions: Staphylococcus aureus
Staph. aureus Russell = experiment: as above; conditions: Staphylococcus aureus
Escherichia coli 10418 = experiment: as above
bacteria = experiment: Tests for antibacterial activity in broth (Example 32); format: cell-based
[5] = Blood and tissue levels in female mice; format: in vivo; conditions: oral administration of 100 mg/kg
Stability in human blood = format: in vitro ADME

Compound: CC1(C)S[C@@H]2[C@H](NC(=O)[C@H](N)c3ccccc3)C(=O)N2[C@H]1C(=O)O [Ampicillin, ampicillin]
M.I.C., Ampicillin + 5 μg/ml of Benzyl Ester of clavulanic acid (Klebsiella aerogenes A [1]): 1.9
M.I.C., Ampicillin + 5 μg/ml of Methyl Ester of clavulanic acid (Klebsiella aerogenes A [1]): 1.9
M.I.C., Ampicillin + 5 μg/ml of Benzyl Ester of clavulanic acid [2]: 3.9
M.I.C., Ampicillin + 5 μg/ml of Methyl Ester of clavulanic acid [2]: 3.9
M.I.C., Ampicillin + 5 μg/ml of Benzyl Ester of clavulanic acid (Klebsiella aerogenes 62): 3.9
M.I.C., Ampicillin + 5 μg/ml of Methyl Ester of clavulanic acid (Klebsiella aerogenes 62): 3.9
M.I.C. in the presence of 1.0 μg/ml. clavulanic acid methyl ester [3]: < 0.4 µg/mL
M.I.C. in the presence of 5 μg/ml. clavulanic acid methyl ester (Proteus mirabilis C889): 31 µg/mL

Compound: CC1(C)S[C@@H]2[C@H](NC(=O)Cc3ccccc3)C(=O)N2[C@H]1C(=O)O [Benzylpenicillin, benzylpenicillin]
concentration inhibiting growth when 5 μg/ml. of clavulanic acid is also present (Klebsiella aerogenes A [4]): less than 12.5 μg/ml.

Compound: O=C(Cc1cccs1)N[C@@H]1C(=O)N2C(C(=O)[O-])=C(C[n+]3ccccc3)CS[C@H]12 [Cephaloridine, cephaloridine]
Minimum Inhibitory Concentration in presence of 5μg/ml clavulanic acid sodium salt (Staphylococcus aureus): 3.7 µg/mL
M.I.C. in the presence of 1.0 μg/ml. clavulanic acid methyl ester [3]: < 0.03 µg/mL

MIC (Bacillus subtilis A): 125 µg/mL (≈ 377 µM)
MIC (Staph. aureus Oxford): 31 µg/mL (≈ 93.6 µM)
MIC (Staph. aureus Russell): 15 µg/mL (≈ 45.3 µM)
MIC (Escherichia coli 10418): 125 µg/mL (≈ 377 µM)
Compound: O=C1OC(OC(=O)[C@H]2/C(=C/CO)O[C@@H]3CC(=O)N32)c2ccccc21 (some centres unmarked) [Phthalidyl ester, Clavulanic Acid Phthalide Esters]

MIC (Escherichia coli 10418): 125 µg/mL (≈ 432 µM)
Compound: O=C(OCc1ccccc1)[C@H]1/C(=C/CO)O[C@@H]2CC(=O)N21 [clavulanic acid benzyl ester, benzyl ester of 3-(β-hydroxyethylidine)-7-oxo-4-oxa-1-azabicyclo [3,2,0]heptane-2-carboxylic acid]

Compound: COC(=O)[C@H]1/C(=C/CO)O[C@@H]2CC(=O)N21 [clavulanic acid methyl ester]
antibacterial activity in broth (bacteria): broad spectrum activity but of a lower order than shown by clavulanic acid

Compound: O=C(O)[C@H]1/C(=C/CO)O[C@@H]2CC(=O)N21 [clavulanic acid sodium salt, 3-(β-hydroxyethylidine)-7-oxo-4-oxa-1-azabicyclo [3,2,0]heptane-2-carboxylic acid sodium salt]
levels of clavulanic acid after oral administration [5]: useful levels
MIC (Escherichia coli 10418): 125 µg/mL

Compound: O=C(O)[C@H]1/C(=C/CO)O[C@@H]2CC(=O)N21 [clavulanic acid, Z-(2R,5R)-3-(β-hydroxyethylidene)-7-oxo-4-oxa-1-azabicyclo[3,2,0]heptane-2-carboxylic acid]
stability in human blood (Stability in human blood): high stability
